Assay results taken from the NIST ThermoML archive (doi:10.1021/je0340755).

Assay: xn = mol fraction of the nth substance listed
Conditions: 101.3 kPa, Liquid; for viscosity: Capillary tube (Ostwald / Ubbelohde) method

CC(O)CO (configuration not stated) [1,2-propanediol] + O
Conditions	mass density, 318.15 K [kg/m3]	mass density, 328.15 K [kg/m3]	speed of sound, 318.15 K [m/s]	speed of sound, 328.15 K [m/s]	viscosity, 328.15 K [mPa·s]
x2 = 0.044	–	1010.15	–	1414.3	9.223
x2 = 0.0987	–	1010.89	–	1421.8	8.612
x2 = 0.1484	–	1011.57	–	1426.6	8.046
x2 = 0.2498	–	1012.99	–	1440.5	6.905
x2 = 0.3494	–	1014.43	–	1460.2	5.842
x2 = 0.4494	–	1015.82	–	1486.4	4.844
x2 = 0.5029	–	1016.47	–	1504.2	4.335
x2 = 0.5499	–	1016.94	1555.5	1522.6	3.901
x2 = 0.5597	1024.96	1017.01	1559.6	1526.7	3.811
x2 = 0.6501	1025.1	1017.26	1599.9	1568.3	3.002
x2 = 0.7499	1023.4	1015.84	1637.6	1609.2	2.147
x2 = 0.85	1017.63	1010.71	1637.9	1617.9	1.36
x2 = 0.9003	1011.96	1005.57	1615	1602.5	1.012
x2 = 0.9115	1010.33	1004.09	1607.7	1597.2	0.942
x2 = 0.9154	1009.72	1003.54	1605	1595.2	0.917
x2 = 0.927	1007.79	1001.78	1596.5	1589	0.848
x2 = 0.9367	1006.03	–	1589	–	0.793
x2 = 0.9504	1003.28	–	1577.7	–	0.72
x2 = 0.9551	1002.26	–	1573.6	–	0.695
x2 = 0.96	1001.16	–	1569.4	–	0.672
x2 = 0.9696	998.86	–	1561	–	0.627
x2 = 0.9797	996.22	–	1552.2	–	0.582
x2 = 0.9902	993.24	–	1543.1	–	0.539
x2 = 0.9923	992.61	–	1541.4	–	0.531
x2 = 0.9948	991.85	–	1539.3	–	0.521
